Tests used:
[1] = tested on: panicum, fall; assay: Test E preemergence herbicide test; format: in vivo, Panicum dichotomiflorum; parameters: key: 0 = no effect, 100 = complete control
Excerpt: (§1) Seeds of plant species selected from corn (Zea mays), soybean (Glycine max), velvetleaf (Abutilon theophrasti), lambsquarters (Chenopodium album), wild poinsettia (Euphorbia heterophylla), pigweed, palmer (palmer pigweed, Amaranthus palmeri), waterhemp (common waterhemp, Amaranthus rudis), surinam grass (Brachiaria decumbens), crabgrass, large (large crabgrass, Digitaria sanguinalis), crabgrass, Brazil (Brazilian crabgrass, Digitaria horizontalis), panicum, fall (fall panicum, Panicum dichotomiflorum), foxtail, giant (giant foxtail, Setaria faberii), foxtail, green (green foxtail, Setaria viridis), goosegrass (Eleusine indica), johnsongrass (Sorghum halepense), ragweed (common ragweed, Ambrosia elatior), barnyardgrass (Echinochloa crus-galli), sandbur (southern sandbur, Cenchrus echinatus), arrowleaf […] rhombifolia), ryegrass, Italian (Italian ryegrass, Lolium multiflorum), dayflower, VA (Virginia dayflower, Commelina virginica), field bindweed (Convolvulus arvensis), morningglory (Ipomoea coccinea), nightshade (eastern black nightshade, Solanum ptycanthum), kochia (Kochia scoparia), nutsedge, yellow (yellow nutsedge, Cyperus esculentus), cocklebur (common cocklebur, Xanthium strumarium), smartweed (ladysthumb smartweed, Polygonum Persicaria) and beggarticks (hairy beggarticks, Bidens pilosa), were planted into a silt loam soil and treated preemergence with test chemicals formulated in a non-phytotoxic solvent mixture which included a surfactant. Treated plants and controls were maintained in a greenhouse for 21 days, after which time all species were compared to controls and visually evaluated. Plant response ratings, summarized in Table E, are based on a scale of 0 to 100 where 0 is no effect and 100 is complete control. A dash (-) response means no test result.

[2] = tested on: kochia; assay: Test D pre-/postemergence herbicide test; format: in vivo, Kochia scoparia; conditions: for Plant response rating: Kochia, scale 0 to 100; for Plant response rating, Kochia: scale 0 to 100 (0 no effect, 100 complete control)
Excerpt: Seeds of plant species selected from bluegrass (annual bluegrass, Poa annua), blackgrass (Alopecurus myosuroides), canarygrass (littleseed canarygrass, Phalaris minor), chickweed (common chickweed, Stellaria media), galium (catchweed bedstraw, Galium aparine), bromegrass, downy (downy bromegrass, Bromus tectorum), field poppy (Papaver rhoeas), field violet (Viola arvensis), foxtail, green (green foxtail, Setaria viridis), deadnettle (henbit deadnettle, Lamium amplexicaule), ryegrass, Italian (Italian ryegrass, Lolium multiflorum), kochia (Kochia scoparia), lambsquarters (Chenopodium album), oilseed rape (Brassica napus), pigweed (Amaranthus retroflexus), chamomile (scentless chamomile, Matricaria inodora), Russian thistle (Salsola kali), speedwell (bird's-eye speedwell, Veronica persica), barley, spring (spring barley, Hordeum vulgare), wheat, spring (spring wheat, Triticum aestivum), buckwheat, wild (wild buckwheat, Polygonum convolvulus), mustard, wild (wild mustard, Sinapis arvensis), oat, wild (wild oat, Avena fatua), radish, wild (wild radish, Raphanus raphanistrum), […]), barley, winter (winter barley, Hordeum vulgare), and wheat, winter (winter wheat, Triticum aestivum) were planted into a silt loam soil and treated preemergence with test chemicals formulated in a non-phytotoxic solvent mixture which included a surfactant. At the same time, these species were planted in pots containing Redi-Earth® planting medium (Scotts Company, 14111 Scottslawn Road, Marysville, Ohio 43041) comprising spaghnum peat moss, vermiculite, wetting agent and starter nutrients and treated with postemergence applications of the test chemicals formulated in the same manner. Plants ranged in height from 2 to 18 cm (1- to 4-leaf stage). Treated plants and controls were maintained in a controlled growth environment for 7 to 21 days after which time all species were compared to controls and visually evaluated. Plant response ratings, summarized in Table D, are based on a scale of 0 to 100 where 0 is no effect and 100 is complete control. A dash (-) response means no test result.

[3] = tested on: lambsquarters; assay: Test D pre-/postemergence herbicide test; format: in vivo, Chenopodium album; conditions: for Plant response rating: Lambsquarters, scale 0 to 100; for Plant response rating, Lambsquarters: scale 0 to 100 (0 no effect, 100 complete control)
In short: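 Plants were maintained 7 to 21 days in a controlled environment after treatment and then scored visually against controls (0 no effect, 100 complete control). Seeds in silt loam received preemergence sprays, and 1- to 4-leaf plants received postemergence sprays, both formulated in non-phytotoxic solvent with surfactant.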

[4] = tested on: field bindweed; assay: Test E preemergence herbicide test; format: in vivo, Convolvulus arvensis; parameters: key: 0 = no effect, 100 = complete control
Excerpt: as §1

[5] = tested on: monochoria; assay: Test F flood (paddy) test; format: in vivo, Monochoria vaginalis; conditions: 21 d, scale 0-100
In short: (§2)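 Greenhouse paddy, 30/27 °C day/night, 16-h light; sterilized Tama silt loam, 2.6% OM. Plants at 2.0–2.5 leaves; flood 3 cm, compound added directly to water. Visual score at 21 d, 0 = no effect, 100 = complete control, relative to untreated.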

[6] = tested on: sprangletop, Brdd.; assay: Test F flood (paddy) test; format: in vivo, Leptochloa fascicularis; conditions: 21 d, scale 0-100
In short: as §2

| SMILES | Plant response rating, Panicum, Fall ([1]; 16 g ai/ha) | Plant response rating, Panicum, Fall ([1]; 31 g ai/ha) | Plant response rating, Panicum, Fall ([1]; 62 g ai/ha) | Plant response rating, Panicum, Fall ([1]; 125 g ai/ha) | Plant response rating, Panicum, Fall ([1]; 250 g ai/ha) | Plant response rating ([2]; Postemergence, 31 g ai/ha) | Plant response rating ([2]; Postemergence, 62 g ai/ha) | Plant response rating ([2]; Postemergence, 125 g ai/ha) | Plant response rating ([2]; Postemergence, 250 g ai/ha) | Plant response rating, Kochia ([2]; Preemergence, 62 g ai/ha) | Plant response rating, Kochia ([2]; Preemergence, 31 g ai/ha) | Plant response rating ([2]; Preemergence, 250 g ai/ha) | Plant response rating ([3]; Postemergence, 31 g ai/ha) | Plant response rating ([3]; Postemergence, 62 g ai/ha) | Plant response rating ([3]; Postemergence, 125 g ai/ha) | Plant response rating ([3]; Postemergence, 250 g ai/ha) | Plant response rating, Field Bindweed ([4]; 31 g ai/ha) | Plant response rating, Field Bindweed ([4]; 62 g ai/ha) | Plant response rating, Field Bindweed ([4]; 125 g ai/ha) | Plant response rating, Field Bindweed ([4]; 250 g ai/ha) | further results |
| --- | --- | --- | --- | --- | --- | --- | --- | --- | --- | --- | --- | --- | --- | --- | --- | --- | --- | --- | --- | --- | --- |
| O=C1NCC(c2ccc(C(F)(F)F)cc2)C1C(=O)Nc1cccc(F)c1F (centres unmarked) [Compound 80, N-(2,3-difluorophenyl)-2-oxo-4-[4-(trifluoromethyl)phenyl]-3-pyrrolidinecarboxamide] | 0 | 0 | 0 | 0 | 0 | 65 | 75 | 70 | 75 | 35 | 15 | 75 | 45 | 45 | 40 | 35 | 0 | 0 | 0 | 0 | Plant response rating ([2]; Preemergence, 125 g ai/ha): 70; Plant response rating, Lambsquarters ([3]; Preemergence, 62 g ai/ha): 80; Plant response rating, Lambsquarters ([3]; Preemergence, 31 g ai/ha): 85; Plant response rating ([3]; Preemergence, 125 g ai/ha): 90; Plant response rating ([3]; Preemergence, 250 g ai/ha): 90; Plant response rating, Field Bindweed ([4]; 16 g ai/ha): 0 |
| O=C1NCC(c2ccc(F)c(F)c2)C1C(=O)Nc1cccc(F)c1F (centres unmarked) [Compound 17, N-(2,3-difluorophenyl)-4-(3,4-difluorophenyl)-2-oxo-3-pyrrolidinecarboxamide] | 0 | 0 | 0 | 0 | 0 | 0 | 20 | 20 | 40 | – | – | – | 0 | 0 | 20 | 40 | 0 | 0 | 0 | 0 | Plant response rating, Monochoria ([5]; 125 g ai/ha): 90; Plant response rating, Monochoria ([5]; 250 g ai/ha): 90; Plant response rating, Monochoria ([5]; 500 g ai/ha): 95; Plant response rating, Monochoria ([5]; 1000 g ai/ha): 95; Plant response rating, Monochoria ([5]; 2000 g ai/ha): 95; Plant response rating ([2]; Postemergence, 16 g ai/ha): 0; Plant response rating, Sprangletop, Brdd. ([6]; 125 g ai/ha): 85; Plant response rating, Sprangletop, Brdd. ([6]; 250 g ai/ha): 85; Plant response rating, Sprangletop, Brdd. ([6]; 500 g ai/ha): 85; Plant response rating, Sprangletop, Brdd. ([6]; 1000 g ai/ha): 85; Plant response rating, Sprangletop, Brdd. ([6]; 2000 g ai/ha): 100; Plant response rating ([3]; Postemergence, 16 g ai/ha): 0; Plant response rating, Field Bindweed ([4]; 16 g ai/ha): 0 |
| O=C1NC[C@H](c2cccc(C(F)(F)F)c2)[C@H]1C(=O)Nc1ccccc1F [Compound 204, (3R,4S)—N-(2-fluorophenyl)-2-oxo-4-[3-(trifluoromethyl)phenyl]-3-pyrrolidinecarboxamide] | – | 0 | 0 | 75 | 75 | – | – | – | – | 45 | 20 | 70 | – | – | – | – | 0 | 0 | 0 | 30 | Plant response rating, Monochoria ([5]; 125 g ai/ha): 95; Plant response rating, Monochoria ([5]; 250 g ai/ha): 100; Plant response rating, Monochoria ([5]; 500 g ai/ha): 100; Plant response rating, Kochia ([2]; Preemergence, 125 g ai/ha): 15; Plant response rating, Sprangletop, Brdd. ([6]; 125 g ai/ha): 98; Plant response rating, Sprangletop, Brdd. ([6]; 250 g ai/ha): 100; Plant response rating, Sprangletop, Brdd. ([6]; 500 g ai/ha): 100; Plant response rating, Lambsquarters ([3]; Preemergence, 62 g ai/ha): 30; Plant response rating, Lambsquarters ([3]; Preemergence, 125 g ai/ha): 65; Plant response rating, Lambsquarters ([3]; Preemergence, 31 g ai/ha): 35; Plant response rating ([3]; Preemergence, 250 g ai/ha): 90 |
| O=C1NCC(c2ccc(OC(F)F)cc2)C1C(=O)Nc1cccc(F)c1F (racemic) [Compound 350] | – | 0 | 0 | 0 | 0 | – | – | – | – | – | – | – | – | – | – | – | 40 | 60 | 65 | 60 | – |
| O=C1NCC(c2ccc(Cl)c(Cl)c2)C1C(=O)Nc1ccccc1F (racemic) [Compound 14] | 0 | 0 | 0 | – | 40 | – | – | – | – | – | – | – | – | – | – | – | 0 | 0 | 0 | 0 | Plant response rating, Field Bindweed ([4]; 16 g ai/ha): 0 |
| O=C1NCC(c2ccc(C(F)(F)F)cc2)C1C(=O)Nc1cccc(F)c1F (racemic) [Compound 202] | – | 0 | 0 | 50 | 85 | 70 | 70 | 75 | 75 | 85 | 85 | 85 | 65 | 60 | 70 | 75 | 60 | 40 | 50 | 70 | Plant response rating ([2]; Preemergence, 125 g ai/ha): 85; Plant response rating, Lambsquarters ([3]; Preemergence, 62 g ai/ha): 85; Plant response rating, Lambsquarters ([3]; Preemergence, 31 g ai/ha): 80; Plant response rating ([3]; Preemergence, 125 g ai/ha): 85; Plant response rating ([3]; Preemergence, 250 g ai/ha): 85 |
